Assay results taken from ChEMBL document CHEMBL1126848, “Concepts and progress in the development of peptide mimetics” (J Med Chem, 1993).

How the values were obtained:
[1] = tested on: Mus musculus; experiment: Concentration required toTRH reduced mean latencies mimetics in mice after i.p. administration using the Morris water maze test; 0.003-3; format: functional, organism-based
[2] = tested on: Mus musculus; experiment: Concentration required toTRH reduced mean latencies mimetics in mice after p.o. administration using the Morris water maze test; 0.003-3; format: functional, organism-based

NC(=O)C[C@@H]1C[C@H](Cc2c[nH]cn2)C[C@H](C[C@@H]2CCC(=O)N2Cc2ccccc2)C1
Concentration [1]: 0.003 mg/kg
Concentration [2]: 0.003 mg/kg
